These are literature values, as cited in US20110002851A1, “Cationic Colloidal Carriers for Delivery of Active Agents to the Blood-Brain Barrier in the Course of Neuroinflammatory Diseases” (MediGene AG, priority 2006, published 2011).

In one series the test system is T cell. Particulars: micellar paclitaxel formulation.
The subject of the next series is MMP-9. Particulars: LPS-stimulated astrocytes and microglia.

Structures are written as SMILES.

Take `CC(=O)O[C@H]1C(=O)[C@@]2(C)[C@H]([C@H](OC(=O)c3ccccc3)[C@]3(O)C[C@H](OC(=O)[C@H](O)[C@@H](NC(=O)c4ccccc4)c4ccccc4)C(C)=C1C3(C)C)[C@]1(OC(C)=O)CO[C@@H]1C[C@@H]2O` (racemic) [paclitaxel]: the T cell proliferation result with T cell is “dose-dependent suppression”. As to `Cc1cn([C@H]2C[C@H](N=[N+]=[N-])[C@@H](CO)O2)c(=O)[nH]c1=O` [AZT, zidovudine], in the series with MMP-9, the “expression of MMP-9” value is listed as “dose-dependently inhibited”. Take `CC(C)(C)NC(=O)[C@@H]1CN(Cc2cccnc2)CCN1C[C@@H](O)C[C@@H](Cc1ccccc1)C(=O)N[C@H]1c2ccccc2C[C@H]1O` [IDV, indinavir]: in the series on MMP-9, the “expression of MMP-9” value is “dose-dependently inhibited”.
